# What was measured:
# Assay type in all cases: in vivo
# Settings in all cases: applied at 3-5 leaf stage, scored visually approx. 4-6 weeks after application, means of 2-3 repetitions, g of AS/ha: (A1 + B2)^S 12.5 + 6.25; Azur 800 + 40 + 200; B2 5; E) 60
# Avena fatua = assay: Outdoor trial: herbicidal action, visual score
# Experimental: (§1) Herbicidal action and compatibility in outdoor trials
# (§2) The plants were sown and cultivated (fertilization, irrigation, etc.) as customary in practice on trial fields with naturally occurring weeds.
# (§3) The experiments were designed as random tests of 2 plots of 5-10 m^2, with 2-3 repetitions. Application was carried out using plot sprayers at the 3-5 leaf stage. The test substances were made up in 100-600 liters of water/ha and applied with a pressure of 3 bar.
# (§4) After the treatment (approx. 4-6 weeks after application), the herbidical activity of the active compounds or active compound mixtures was scored visually by comparing the treated plants with the untreated controls. The damage and development of all above-ground parts of the plants was recorded. Scoring was done on a percentage scale (100% action=all plants dead; 50% action=50% of the plants and green plant parts dead; 0% action=no discernible action or damage to crop species.
# (§5) In the tables below, the results are given as the means of 2-3 repetitions, and the activity achieved when active compounds (A+B) and C) were applied independently is stated in brackets.
# Galium aparine = assay: Outdoor trial: herbicidal action, visual score
# Experimental: as §1, §2, §3, §4, §5
# Winter wheat = assay: Outdoor trial: compatibility, % damage to crop
# Experimental: as §1, §2, §3, §4, §5
structure (smiles),measurement,setting,value
"CCOC(=O)[C@@H](C)Oc1ccc(Oc2nc3ccc(Cl)cc3o2)cc1 [E), fenoxaprop-(P)-ethyl]",% Activity Avena fatua,Avena fatua,70) %
same,% Activity Galium aparine,Galium aparine,0) %
"COC(=O)c1ccc(I)cc1S(=O)(=O)[N-]C(=O)Nc1nc(C)nc(OC)n1.[Na+] [B2, iodosulfuron-methyl-sodium]",Winter wheat % Damage,Winter wheat,0%
same,% Activity Avena fatua,Avena fatua,68%
same,% Activity Galium aparine,Galium aparine,25%

# From patent publication US20030181333A1, “Herbicide combinations comprising specific sulfonylureas” (Bayer CropScience GmbH, priority 2002, published 2003)
